Measurements: patent US12329852B2, “Sustained-release 9-cis retinoic acid implantable drug delivery pellets for the prevention of postsurgical edema and lymphedema” (UNIVERSITY OF SOUTHERN CALIFORNIA, priority 2019, dated 2025)
Entries after “also recorded” stand apart in the source; their conditions may differ.

Columns and labels:
tail lymphedema [1] = test: Oral administration, tail lymphedema, lymphatic clearance; assay type: in vivo, BALB/c mice; conditions: oral gavage for 6 weeks
Method: (§2) Oral administration experiments were performed on 30 adult BALB/c mice, 12 to 14 weeks old, and weighing between 21 and 30 g. Surgical excision of lymphatic vessels at 20-mm from the base of the tail was performed in order to induce secondary lymphedema. Mice receive 9-cis RA dissolved in sunflower oil via oral gavage for 6 weeks in accordance to the dosing regimes in Table 3.

[2] = tested on: lymphatic endothelial cell; conditions: in vitro; earlier work [12,13]; cited from earlier work
[3] = tested on: lymphatic vessels of uninjured ears; test: Lymphatic analysis of uninjured ears, LYVE-1 whole mount; assay type: in vivo, BALB/c mice; conditions: 0.08 mg/kg daily i.p., any duration
Method: Bilateral ears of animals were harvested simultaneously with the diaphragm, removed of all hair using depilatory cream and fixed in 4% paraformaldehyde. The ears were then split between the inner and outer layers under a dissecting microscope and the cartilage removed prior to immunoflourescence staining. The whole mounted specimens were subsequently stained with anti-LYVE-1 and anti-CD-31 antibodies after washing with PBS, permeabilizing with 0.5% Triton X-100 (Sigma-Aldrich, USA), and incubated with the primary antibody (1:500) overnight. Green secondary antibodies (1:200 donkey anti-rabbit Alexa Fluor 488, Thermo Fisher Scientific, Canoga Park, CA) were used to stain for LYVE-1.
(§1) Slides were counterstained with hematoxylin and mounted. All images were obtained with a Keyence BZ-X700 microscope (Itasca, IL) and epidermal and dermal thickness was measured using ImageJ (National Institutes of Health, Betheseda, MD). The thickest part of the epidermis and dermis was measured in 5 high-power fields per section, as previously described. On the immunohistochemically stained slides, podoplanin stained vessels in the dermis and subcutis were quantified in ImageJ. Two high-power fields per section were randomly selected and then analyzed by a blinded reviewer. The reviewer scored the number of podoplanin stained vessels and the area (mm^2) of the dermis and subcutaneous tissue in each image. […]

hind limb lymphedema [4] = test: Hind limb lymphedema model, paw thickness (implantable pellet); assay type: in vivo, mouse; conditions: for paw swelling, mean difference compared to control animals: implantable pellet 100 μg 9-cis RA, 30-day release
Method: All experiments were performed in accordance with the statutes from The Guide for the Care and Use of Laboratory Animals (National Research Council, 8th ed, 2011), the Animal Welfare Act, and other Federal regulations. The was approved by the University of Southern California Institutional Animal Care and Use Committee. Male and female Prox-1 green fluorescent protein (GFP) transgenic mice, 12-16 weeks old, weighing 20-30 g were bred within the University of Southern California animal facility. This GFP-expressing lymphatic reporter mouse was used because it conveniently allowed for the visualization of lymphatic vessels and other Prox1-expressing tissue under fluorescence microscopy, and facilitated the immunohistochemical staining of lymphatic vessels using anti-GFP primary antibody.
Under isoflurane-inhaled anesthesia, the lymphatic injury protocol was used on all experimental mice to induce hind limb lymphedema. This consisted of hind limb lymph node dissection followed by adjuvant radiation therapy. Using a dissecting microscope, a circumferential intradermal incision was made around the thigh, after which the ipsilateral inguinal fat pad, containing the inguinal lymph nodes, and ipsilateral popliteal lymph node were removed, as previously described. Visualization of the inguinal and popliteal lymphatics was facilitated by the injection of methylene blue dye on the dorsum of the paw and by the use of a green fluorescent microscope. Skin sutures were placed in 7-8 mm gaps to reinforce discontinuity of dermal lymphatics. The surgical area was then irradiated using a clinically relevant dose of 27.5 Gy radiation delivered by an XRad 320 device over a period of 5 days (550 cGy per day), which is the human equivalent dose for mouse.
Pellets were placed within the surgical wound intraoperatively and sutured in place to the adductor muscles of the thigh. Treatment pellets were custom-manufactured by Innovative Research of America (Sarasota, FL) to contain 100 μg of 9-cis RA, released over a period of 30 days using a matrix-driven delivery system. The carrier-binder excipients of the pellet matrix were synthetic and non-toxic, and included cholesterol, lactose, celluloses, phosphates, and stearates.
Prior to surgery, all animals were sex-, age-, and weight-matched to eliminate confounding variables. Paw thickness, the primary outcome, was measured weekly using electronic calipers for a total of 6 weeks. Paw thickness was normalized for each animal by calculating percent change relative to the unaffected paw. Hind limbs were photographed using a Nikon D5000 digital SLR flash camera using fixed distances, focal length, background, and positioning.

hind limb lymphedema [5] = test: ICG lymphography of hind limb, lymphatic clearance (implantable pellet); assay type: in vivo, mouse; conditions: postoperative week 6, 3 to 144 hours after ICG injection
Method: At postoperative week 6, lymphatic clearance was measured using indocyanine green (ICG) lymphography to compare lymphatic function between the treatment and placebo groups. After inducing anesthesia via isoflurane inhalation, a sub-microliter injection system syringe was used to intradermally inject 2 uL of ICG on the dorsal aspect of the second and fifth paw digits. ICG lymphography images were recorded at 1, 3, 6, 12, 24, 48, 72, 96, and 144 hours post-injection. The fluorescence intensity of the lymphography images was quantified at each post-injection time point using ImageJ pixel intensity analysis (National Institutes of Health, Bethesda, MD).
Indocyanine green (ICG) lymphography is a well-established procedure used in clinics by healthcare providers to visualize lymphatic vessels in real-time for the purposes of diagnosis or preoperative planning. When ICG is injected intradermally, it is preferentially picked up and cleared by the lymphatic system. This imaging modality provides rapid visualization of lymphatic vessels and measures lymphatic clearance, acting as a surrogate for lymphatic function. […] Thus, at postoperative week 6 and prior to euthanasia, lymphatic clearance were monitored by quantifying the change in dermal fluorescence of mouse hind limbs injected with ICG.

tail lymphedema [6] = test: Lymphatic vessel density, podoplanin immunohistochemistry of tail; assay type: in vivo, BALB/c mice; conditions: 0.08 mg/kg daily i.p.
Method: Tail specimens were collected on post-operative day 47. Specimens were harvested to include 1 cm proximal and 1 cm distal the wound, then divided to separate proximal and distal portions. Tails were inked to enable proper orientation, fixed in 10% neutral buffered formalin overnight, decalcified in 10% EDTA (pH: 7.3) for 6 days at 4° C., embedded in paraffin, sectioned at 3-5 μm, then stained with hematoxylin and eosin (H&E) or via immunohistochemical techniques. In summary, sections were deparaffinized, underwent antigen retrieval with sodium citrate buffer, incubated overnight with the primary antibody (1:200) at 4° C., washed, incubated with a suitable secondary antibody (1:200), then stained with immPACT DAB Substrate (Vector Laboratories, Inc, Burlingame, CA) and counterstained with Delafield Hematoxylin (Sigma-Aldrich, USA) diluted 1:4. Podoplanin (clone 8.1.1; sc-53533, Santa Cruz Biotechnology, Inc., Dallas, TX) was used to immunohistochemically mark lymphatics in paraffin embedded tail sections.
as §1

tail lymphedema [7] = test: Oral administration, tail lymphedema, gross tail volume; assay type: in vivo, BALB/c mice; conditions: oral gavage in sunflower oil for 6 weeks
Method: as §2

## CC1=C(/C=C/C(C)=C\C=C\C(C)=C\C(=O)O)C(C)(C)CCC1 [9-cis RA, 9-cis retinoic acid]
Tail lymphedema [1]; high dose 30 mg/kg
  lymphatic clearance: improves lymphatic clearance
Tail lymphedema [1]; low dose 10 mg/kg
  lymphatic clearance: improves lymphatic clearance
[2]
  lymphatic endothelial cell proliferation, migration and vessel formation: significantly increased
[3]
  number of branch points, blind-ended sacs, loops, total length, density of lymphatic vessels in uninjured ears vs vehicle control: no significant difference
Hind limb lymphedema [4]; postoperative week 3
  paw swelling, mean difference compared to control animals: 7%
Hind limb lymphedema [4]; postoperative week 4
  paw swelling, mean difference compared to control animals: 12%
Hind limb lymphedema [4]; postoperative week 5
  paw swelling, mean difference compared to control animals: 9%
Hind limb lymphedema [4]; postoperative week 6
  paw swelling, mean difference compared to control animals: 11%
Hind limb lymphedema [4]; implantable pellet, between time points over 6 weeks
  change in paw swelling/thickness within the treatment group over time: no significant differences in paw swelling are observed between time points
Hind limb lymphedema [5]
  lymphatic drainage as change in ICG fluorescence compared to control: significantly faster lymphatic drainage
Tail lymphedema [6]; 7-day delay group
  lymphatic vessel density compared to control: strong trend towards improvement but not statistical significance
Tail lymphedema [6]; 14-day group
  lymphatic vessel density compared to control: trend towards increased lymphatic density that did not reach statistical significance; also recorded: trending towards significance
Tail lymphedema [6]; 42-day/45-day group, tails distal to wound, day 47
  lymphatic vessel density compared to control: significantly increased compared to the controls; also recorded: statistically significant difference
Tail lymphedema [7]; high dose 30 mg/kg
  change in gross tail volume: decreases change in gross tail volume
Tail lymphedema [7]; low dose 10 mg/kg, 10 mg/kg
  change in gross tail volume: decreases change in gross tail volume
Tail lymphedema [7]; low dose 10 mg/kg, listed as 9-cis retinoic acid, 10 mg/kg
  change in gross tail volume: most effective for preventing post-surgical tail lymphedema
